Experimental data published in ChEMBL document CHEMBL1201862, “PubChem BioAssay data set” (2004).
Structures can show the parent of a compound that is named as a salt. Active and inactive are the calls of the source.

Key:
[1] = inhibitors of non-replicating M. tuberculosis, dose response, luciferase, dry powder (AID 651619); type: functional; details: Mycobacterium tuberculosis
[2] = CTGF mRNA reduction under YAP1 overexpression, dose response, mechanism study for YAP1 pathway inhibitor project, DLD1 cells, RT-qPCR, cherry-pick (AID 1053127); type: functional, cell-based; details: DLD-1
[3] = YAP1 pathway inhibition via CTGF transcript levels, dose response, cell-based, DLD1 colon cancer, RT-qPCR, cherry-pick (AID 1053122); type: functional; details: Cancer cell lines
[4] = P. falciparum Dd2 blood-stage growth inhibition, dose response, SYBR Green fluorescence, erythrocytes, dry powder, set 2 (AID 1159574); type: functional, cell-based
[5] = A549 cell cytotoxicity, dose response, cytotoxicity control, plate reader, dry powder, set 6 (AID 743312); type: functional, cell-based
[6] = HEK293T cell cytotoxicity, dose response, cytotoxicity control, plate reader, dry powder, set 10 (AID 743315); type: functional, cell-based; details: HEK293
[7] = HepG2 cell cytotoxicity, dose response, cytotoxicity control, plate reader, dry powder, set 6 (AID 743311); type: functional, cell-based
[8] = cells; details: HEK293
[9] = P. falciparum Dd2 growth inhibitors, dose response, SYBR Green, dry powder samples, set 9 (AID 1159568); type: functional, cell-based
[10] = P. falciparum Dd2 growth inhibitors, dose response, SYBR Green, dry powder samples (AID 1159566); type: functional, cell-based;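 note: potency for growth inhibition with lower SYBR green DNA signal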
[11] = P. falciparum ATP4 D1247Y mutant growth inhibitors, dose response, NITD609-resistant line, SYBR Green, dry powder (AID 1159571); type: functional, cell-based;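 note: parasites synchronized at ring stage by sorbitol before testing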
[12] = P. falciparum 3D7-ScDHODH growth inhibitors, dose response, SYBR Green, dry powder samples (AID 1159570); type: functional, cell-based;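 note: parasite growth measured after 72 hours of compound exposure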
[13] = HepG2 cell cytotoxicity, dose response, cytotoxicity control, plate reader, dry powder samples (AID 1159569); type: functional, cell-based;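 note: inhibitor potency with signal falling toward the positive control level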
[14] = CellTiter-Glo luminescent dose response of DLD-1 viability loss (AID 1117352); type: functional
[15] = cytotoxicity toward HT-29 cells – cell-based, CellTiter-Glo luminescence, IC50, dose response (AID 1117330); type: functional
[16] = cytotoxicity toward Colo320 cells – cell-based, CellTiter-Glo luminescence, IC50, dose response (AID 1117334); type: functional; details: COLO 320
[17] = SNU-C1 cell viability reduction, dose response, CellTiter-Glo luminescence (AID 1117323); type: functional, cell-based
[18] = Concentration-dependent survival of SW480 colon cancer line, luminescence detection with CellTiter-Glo, half-maximal inhibitory concentration (AID 1117338); type: functional
[19] = cytotoxicity toward HCT116 cells – cell-based, CellTiter-Glo luminescence, IC50, dose response (AID 1117332); type: functional; details: HCT-116
[20] = RKO cell viability reduction, dose response, CellTiter-Glo luminescence (AID 1117322); type: functional
[21] = HeLa 2N DNA content increase, dose response, cell-based, IC50 (AID 1117349); type: functional
[22] = HeLa 4N DNA content increase, dose response, cell-based, IC50 (AID 1117351); type: functional

[N-]=[N+]=NCCOCCNC(=O)CCCn1cc(C[S+]([O-])c2nnc(-c3ccc(F)cc3)o2)nn1 (configuration not stated)
IC90 [1]: 125 µM (active)

COc1ccccc1C#Cc1ccc([C@@H]2[C@@H](CO)N3CCCCN(C(=O)C4CCC4)C[C@@H]23)cc1
AC50 [2]: 17.7 µM (active) | AC50 [3]: 15.9 µM (active)

COc1ccc2c3c([nH]c2c1)[C@@H](CO)N(C(C)=O)CC31CCN(C(=O)Nc2ccccc2F)CC1
AC50 [4]: 2.48 µM (active)

Cc1cccc(OCCn2c(S)nc3cc(F)ccc32)c1
AC50 [5]: 23.4 µM (active) | AC50 [6]: > 52 µM (inactive) | AC50 [7]: 44.9 µM (active) | AC50 [8]: > 52 µM (inactive)

N#C[C@H]1[C@H](c2ccc(-c3cccc(F)c3)cc2)[C@@H](CO)N1C(=O)NC1CCCC1
AC50 [9]: 20.2 µM (active)

C[C@H]1CN([C@@H](C)CO)C(=O)c2c(c3ccccc3n2C)-c2ccccc2CO[C@H]1CN(C)S(=O)(=O)c1ccc(F)cc1
AC50 [10]: 0.47 µM (active) | AC50 [11]: 1.05 µM (active) | AC50 [12]: 0.819 µM (active) | AC50 [13]: 50.9 µM (active)

Cc1cccc(Cc2c[nH]cn2)c1C [DETOMIDINE HYDROCHLORIDE]
IC50 [14]: > 20 µM (inactive) | IC50 [15]: > 20 µM (inactive) | IC50 [16]: > 20 µM (inactive) | IC50 [17]: > 20 µM (inactive) | IC50 [18]: > 20 µM (inactive) | IC50 [19]: > 20 µM (inactive) | IC50 [20]: > 20 µM (inactive)

C[C@@H]1C[C@H]2[C@@H]3CCC4=CC(=O)C=C[C@]4(C)[C@@]3(Cl)[C@@H](O)C[C@]2(C)[C@@]1(OC(=O)c1ccco1)C(=O)CCl [MOMETASONE FUROATE]
IC50 [21]: > 10 µM (inactive) | IC50 [22]: > 10 µM (inactive)
